Measurements from publication PMC5142613 (The Biochemical journal, 2015).
“Also recorded” adds a separate entry of the source.

Assays:
ATAD2A bromodomain [1] = target: T1, ATAD2A bromodomain (Homo sapiens, UniProt Q6PL18); assay: ATAD2A AlphaScreen assay; assay type: binding; details: for Displacement of histone peptide by small molecule: titration upon H4K5Ac peptide competition, Supplementary Fig. 3b
T1 sequence (Q6PL18 980-1092 limits assumed): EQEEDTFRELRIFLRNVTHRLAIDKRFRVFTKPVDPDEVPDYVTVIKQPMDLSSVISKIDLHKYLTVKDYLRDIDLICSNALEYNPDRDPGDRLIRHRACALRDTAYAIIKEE

ATAD2A bromodomain [2] = assay: DiscoveRx competitive displacement assay; assay type: binding; details: orthogonal assay; as previously described [22]
ATAD2A bromodomain [3] = target: T1, ATAD2A bromodomain; assay: X-ray co-crystallography of ATAD2A complexes; assay type: binding; details: for Binding site / binding mode in crystal structure: co-crystal structure with ATAD2A bromodomain; for Conformational form of ATAD2A in the complex: co-crystal structure, ZA loop position relative to PDB 3DAI
ATAD2A bromodomain [4] = details: human cells (H3K14ac listed second, "respectively"); ref [7], [30]; cited from earlier work
ATAD2A bromodomain [5] = details: ref [24]; cited from earlier work

Row | Displacement of histone peptide by small molecule (ATAD2A bromodomain [1]) | Affinity in DiscoveRx competitive displacement assay (ATAD2A bromodomain [2]) | Binding site / binding mode in crystal structure (ATAD2A bromodomain [3]) | Conformational form of ATAD2A in the complex (ATAD2A bromodomain [3]) | Binding measured in vitro, compound 2 versus compound 1 (ATAD2A bromodomain [1]; Fig. 5a, IC50 and Kd (AlphaScreen and DiscoveRx), comparison with compound 1) | Response of acetylated histone peptide in AlphaScreen panel (ATAD2A bromodomain [1]; direct binding of biotinylated peptide to His-ATAD2A, chemiluminescent readout) | Molecule | Histone interaction by co-immunoprecipitation, human cells (ATAD2A bromodomain [4]) | Interaction in panning of histone peptide panels by peptide array (ATAD2A bromodomain [5])
1 | displaced | high μM |  |  |  |  | CCOC(=O)Nc1cc(-c2ccc(C)c(NS(C)(=O)=O)c2)nn2c(C)nnc12 [Bromosporine, reference compound] |  | 
2 | displaced | high μM | acetyllysine mimetic binding mode | open form |  |  | COC(=O)c1cc(NS(=O)(=O)c2ccccc2)cc(-c2c(C)noc2C)c1 [compound 1, Methyl 3-(3,5-dimethylisoxazol-4-yl)-5-(phenylsulfonamido)benzoate] |  | 
3 | displaced | high μM | acetyllysine mimetic binding mode | open form | weaker binding |  | Cc1noc(C)c1-c1cc(NS(=O)(=O)c2ccccc2)cc(C(=O)O)c1 [compound 2, 3-(3,5-Dimethylisoxazol-4-yl)-5-(phenylsulfonamido)benzoic acid] |  | 

Row | Molecule | Displacement of histone peptide by small molecule (ATAD2A bromodomain [1]) | Affinity in DiscoveRx competitive displacement assay (ATAD2A bromodomain [2]) | Binding site / binding mode in crystal structure (ATAD2A bromodomain [3]) | Conformational form of ATAD2A in the complex (ATAD2A bromodomain [3]) | Binding measured in vitro, compound 2 versus compound 1 (ATAD2A bromodomain [1]; Fig. 5a, IC50 and Kd (AlphaScreen and DiscoveRx), comparison with compound 1) | Response of acetylated histone peptide in AlphaScreen panel (ATAD2A bromodomain [1]; direct binding of biotinylated peptide to His-ATAD2A, chemiluminescent readout) | Histone interaction by co-immunoprecipitation, human cells (ATAD2A bromodomain [4]) | Interaction in panning of histone peptide panels by peptide array (ATAD2A bromodomain [5])
4 | ARTKQTARKSTGGK(Ac)APRKQLAGGK [H3K14ac, reference compound] |  |  | interacts along the end of αC helix, far from the acetyllysine binding site; also recorded: binds non-specifically |  |  | did not respond | histone interactions have been reported | have not been confirmed
